We go through 18 molecules from patent US11364222B2, “Combination therapy for treatment of cancer” (G1 Therapeutics, Inc., priority 2017, dated 2022).

“Also recorded” adds a separate entry of the source.

Series [1] concerns MCF-7 cells. The series can be described thus: MCF7 7 day proliferation assay in the presence of 0.1 nM E2 (Hoechst DNA content). It is filed as cell-based. As to conditions: for IC50: Homo sapiens, MCF7, 168 h, read-out: IC50, MCF7 proliferation.
Series [2] deals with MCF-7 cells. The series can be described thus: MCF7 7 day proliferation assay in the presence of 20 nM insulin (Hoechst DNA content). It is filed as cell-based. As to conditions: Homo sapiens, MCF7, 168 h, read-out: IC50, MCF7 insulin driven proliferation.
The next series concerns MCF7:WS8. Nature of the series: Cell viability of MCF7:WS8, fluorescent DNA quantitation. It is filed as cell-based. As to conditions: MCF7:WS8 cells, day 4, total DNA; for IC50: 96 h, read-out: MCF-7WS8 IC50.
For another series, the system named is MCF7:5C. Nature of the series: Cell viability of MCF7:5C (tamoxifen resistant), fluorescent DNA quantitation. As to conditions: 144 h, read-out: MCF-7:5C IC50. The class given is cell-based.
The next series deals with LTED xenograft tumors. Nature of the series: LTED xenograft tumors, model of aromatase inhibitor resistance. It is filed as in vivo, OVX nu/nu (ovariectomy nude) mice. As to conditions: Compound 20 5, 10, 30 or 100 mg/kg, 30 days of treatment, FIG. 13.
Series [3] relates to estrogen-receptor negative cell. The series can be described thus: Estrogen-receptor negative cell proliferation (summary statement). The class given is cell-based.
The target in another series is hERG (Homo sapiens, UniProt Q12809). The series can be described thus: hERG inhibition (summary statement). (In general: hERG is a cardiac potassium channel; its block is linked to QT prolongation.)
In series [4] the test system is tamoxifen-resistant (TamR) xenograft tumors. Nature of the series: Tamoxifen-resistant (TamR) xenograft tumors, tumor volume. The class given is in vivo. As to conditions: 30 mg/kg qd and 100 mg/kg qd, approximately 70 days, FIG. 12B.
The nature of series [5]: Oral bioavailability (summary statement). As to conditions: in vivo.
Another series addresses T1, estrogen receptor (ER) (Homo sapiens, UniProt P03372).
T1 sequence (P03372 1-595): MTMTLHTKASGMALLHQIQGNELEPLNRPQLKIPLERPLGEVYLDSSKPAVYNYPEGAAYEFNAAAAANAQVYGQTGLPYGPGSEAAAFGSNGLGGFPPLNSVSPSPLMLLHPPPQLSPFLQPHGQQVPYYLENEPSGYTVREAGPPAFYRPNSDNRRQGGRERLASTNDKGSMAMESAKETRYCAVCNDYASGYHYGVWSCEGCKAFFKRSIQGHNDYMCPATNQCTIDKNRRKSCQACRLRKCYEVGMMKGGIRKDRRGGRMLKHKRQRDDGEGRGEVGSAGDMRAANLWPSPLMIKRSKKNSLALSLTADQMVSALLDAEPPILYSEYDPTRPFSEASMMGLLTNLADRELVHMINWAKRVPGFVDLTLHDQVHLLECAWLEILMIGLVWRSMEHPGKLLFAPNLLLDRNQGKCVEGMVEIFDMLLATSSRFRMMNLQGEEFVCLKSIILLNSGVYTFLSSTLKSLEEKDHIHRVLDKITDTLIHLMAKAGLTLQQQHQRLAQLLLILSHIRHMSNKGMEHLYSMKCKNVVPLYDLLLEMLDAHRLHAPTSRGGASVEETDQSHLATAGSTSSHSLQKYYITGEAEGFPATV
As to conditions: MCF7 cells, presence or absence of proteasome pathway inhibitor MG132, FIG. 4.

Series [6] is described as follows: Glucuronidation in gut intestinal mucosa and liver S9 fraction. The class given is in vitro ADME. As to conditions: gut intestinal mucosa and human S9 fraction from the liver.
Series [7] deals with estrogen-receptor positive cell. Nature of the series: Estrogen-receptor positive cell proliferation (summary statement). The class given is cell-based.

hERG, sequence (Q12809 whole entry): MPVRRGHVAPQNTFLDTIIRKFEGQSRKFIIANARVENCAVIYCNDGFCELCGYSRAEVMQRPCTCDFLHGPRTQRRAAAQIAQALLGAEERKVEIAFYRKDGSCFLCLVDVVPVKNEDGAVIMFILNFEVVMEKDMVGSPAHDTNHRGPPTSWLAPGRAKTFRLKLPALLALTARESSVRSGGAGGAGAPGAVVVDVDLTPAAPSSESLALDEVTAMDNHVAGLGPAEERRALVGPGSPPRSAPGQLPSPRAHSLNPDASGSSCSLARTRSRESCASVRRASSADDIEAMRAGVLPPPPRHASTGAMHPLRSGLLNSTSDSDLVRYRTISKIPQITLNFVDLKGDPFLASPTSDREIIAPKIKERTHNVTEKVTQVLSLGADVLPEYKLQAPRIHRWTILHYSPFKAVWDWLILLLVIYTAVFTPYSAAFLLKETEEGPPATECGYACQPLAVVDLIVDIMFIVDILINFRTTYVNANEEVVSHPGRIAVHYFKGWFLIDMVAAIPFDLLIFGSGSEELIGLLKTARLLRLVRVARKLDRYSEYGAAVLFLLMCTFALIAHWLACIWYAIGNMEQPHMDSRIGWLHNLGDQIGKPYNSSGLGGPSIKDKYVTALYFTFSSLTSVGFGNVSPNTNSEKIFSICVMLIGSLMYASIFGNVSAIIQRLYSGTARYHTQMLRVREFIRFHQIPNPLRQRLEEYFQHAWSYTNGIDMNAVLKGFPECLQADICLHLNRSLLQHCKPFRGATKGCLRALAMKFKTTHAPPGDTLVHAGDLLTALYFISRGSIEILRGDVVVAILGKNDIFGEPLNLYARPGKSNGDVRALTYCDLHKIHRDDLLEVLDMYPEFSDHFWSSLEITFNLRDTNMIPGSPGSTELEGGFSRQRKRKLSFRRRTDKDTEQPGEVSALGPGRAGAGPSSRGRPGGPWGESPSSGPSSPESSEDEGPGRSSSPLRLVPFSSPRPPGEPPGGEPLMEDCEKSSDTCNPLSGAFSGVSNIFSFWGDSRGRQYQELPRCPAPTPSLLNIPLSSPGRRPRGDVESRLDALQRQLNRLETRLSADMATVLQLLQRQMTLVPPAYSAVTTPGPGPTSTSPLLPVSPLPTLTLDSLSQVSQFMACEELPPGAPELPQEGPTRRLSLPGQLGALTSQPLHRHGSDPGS

Regarding `CC/C(=C(\c1ccc(O)cc1)c1ccc(OCCN(C)C)cc1)c1ccccc1` [4-hydroxytamoxifen], the IC50 in the series with MCF-7 cells [1] stood at 3.46 nM.
As for `C[C@@H]1Cc2c([nH]c3ccccc23)[C@@H](c2c(F)cc(/C=C/C(=O)O)cc2F)N1CC(C)(C)F` [AZD9496], the IC50 worked out at 0.04 nM with MCF-7 cells [1] and 0.002 nM in the series with MCF-7 cells [2].
Regarding `O=C(O)/C=C/c1ccc(Oc2c(C(=O)c3ccc(O)cc3)sc3cc(O)ccc23)cc1` [Compound 2, (E)-3-(4-((6-Hydroxy-2-(4-hydroxybenzoyl)benzo[b]thiophen-3-yl)oxy)phenyl) acrylic acid], in the series on MCF7:WS8, the “MCF-7WS8 IC50 (nM)” value is on record as “No Inhiibition”.
Turning to `Cc1cc(F)ccc1C(=O)c1sc2cc(O)ccc2c1Oc1c(F)cc(/C=C/C(=O)O)cc1F` [Compound 14, (E)-3-(3,5-Difluoro-4-((2-(4-fluoro-2-methylbenzoyl)-6-hydroxybenzo[b]thiophen-3-yl)oxy)phenyl) acrylic acid], the IC50 in the series with MCF7:5C and in the series with MCF7:WS8 was > 10 nM each time.
On to `Cc1cc(F)ccc1C(=O)c1sc2cc(O)ccc2c1Oc1ccc(/C=C/C(=O)O)cc1F` [Compound 15, (E)-3-(3-Fluoro-4-((2-(4-fluoro-2-methylbenzoyl)-6-hydroxybenzo[b]thiophen-3-yl)oxy)phenyl) acrylic acid], for which the IC50 with MCF7:5C and in the series with MCF7:WS8 was < 10 nM in each case.
As to `Cc1cc(F)ccc1C(F)(F)c1sc2cc(O)ccc2c1Oc1ccc(/C=C/C(=O)O)cc1` [Compound 16, (E)-3-(4-((2-(Difluoro(4-fluoro-2-methylphenyl)methyl)-6-hydroxybenzo[b]thiophen-3-yl)oxy)phenyl)acrylic acid], the IC50 with MCF7:5C and in the series on MCF7:WS8 was < 100 nM each time.
For `Cc1cc(F)ccc1C1(c2sc3cc(O)ccc3c2Oc2ccc(/C=C/C(=O)O)cc2)CC1` [Compound 17, (E)-3-(4-((2-(1-(4-Fluoro-2-methylphenyl)cyclopropyl)-6-hydroxybenzo[b]thiophen-3-yl)oxy)phenyl) acrylic acid], the IC50 in the series with MCF7:5C and in the series on MCF7:WS8 was < 100 nM each time.
In the case of `Cc1cc(F)ccc1C(=O)c1sc2cc(O)ccc2c1Oc1ccc(NC(=O)C(=O)O)cc1` [Compound 18, 2-((4-((2-(4-Fluoro-2-methylbenzoyl)-6-hydroxybenzo[b]thiophen-3-yl)oxy)phenyl)amino)-2-oxoacetic acid], the “MCF-7WS8 IC50 (nM)” value in the series on MCF7:WS8 was “No Inhibition”.
As to `Cc1ccc(C(=O)c2sc3cc(O)ccc3c2Oc2ccc(NC(=O)C(=O)O)cc2)c(C)c1` [Compound 19, 2-((4-((2-(2,4-Dimethylbenzoyl)-6-hydroxybenzo[b]thiophen-3-yl)oxy)phenyl)amino)-2-oxoacetic acid], in the series with MCF7:5C, the IC50 is > 10 nM. In addition, the “MCF-7WS8 IC50 (nM)” value with MCF7:WS8 is listed as “No Inhibition”.
With `Cc1cc(F)cc(C)c1C(=O)c1sc2cc(O)ccc2c1Oc1ccc(/C=C/C(=O)O)cc1` [Compound 20, (E)-3-(4-((2-(4-Fluoro-2,6-dimethylbenzoyl)-6-hydroxybenzo[b]thiophen-3-yl)oxy)phenyl) acrylic acid], the tumor volume entry in the series with LTED xenograft tumors is on record as “decrease in tumor volume correlated with the dose level; also recorded: effective in decreasing tumor volume at all doses”. Further, the “times more potent than fulvestrant” value in the series with MCF-7 cells [1] (0.1 nM E2, 7 day proliferation) is on record as ~4 times. In addition, the IC50 in the series with MCF-7 cells [1] (0.1 nM estradiol (E2), 7 day) is 0.26 nM; in series [3], > 10 nM; against hERG it was > 10 µM; in the series on MCF-7 cells [2] (20 nM insulin, 7 day), 0.028 nM; in [7] it was < 1 nM. Moreover, the “tumor volume, Compound 20 alone” value in [4] is “effective in decreasing tumor volume”. Besides, the oral bioavailability result in series [5] is “good”. Moreover, on estrogen receptor (ER), the “degradation of the estrogen receptor (ESR1a) with or without MG132” value is given as “dependent on the absence of MG132”. Moreover, in [6], the glucuronidation result is given as “observed”.
For `CC/C(=C(/c1ccc(/C=C/C(=O)O)cc1)c1ccc2[nH]ncc2c1)c1ccc(F)cc1Cl` [GDC-0810], the IC50 in the series with MCF-7 cells [1] (0.1 nM estradiol (E2), 7 day) came out at 1.84 nM; with MCF-7 cells [2] (20 nM insulin, 7 day), 0.055 nM.
As for `CC/C(=C(\c1ccccc1)c1ccc(/C=C/C(=O)O)cc1)c1ccccc1` [GW-5638, Etacstil], in the series with MCF-7 cells [1] (0.1 nM estradiol (E2), 7 day), the IC50 came to 946 nM.
As for `CC/C(=C(\c1ccccc1)c1ccc(/C=C/C(=O)O)cc1)c1ccc(O)cc1` [GW-7604], the IC50 in the series with MCF-7 cells [1] (0.1 nM estradiol (E2), 7 day) was 1.81 nM.
For the molecule `C[C@]12C[C@H](c3ccc(OCCCCCS(=O)(=O)CCCC(F)(F)C(F)(F)F)cc3)[C@@H]3c4ccc(O)cc4CC[C@H]3[C@@H]1CC[C@@H]2O` [RU 58668], the IC50 with MCF-7 cells [1] (0.1 nM estradiol (E2), 7 day) is 0.052 nM; in the series on MCF-7 cells [2] (20 nM insulin, 7 day), 0.013 nM.
Turning to `Cc1c(-c2ccc(O)cc2)n(Cc2ccc(OCCN3CCCCCC3)cc2)c2ccc(O)cc12` [bazedoxifene], the IC50 with MCF-7 cells [1] stood at 72 nM.
Turning to `C[C@]12CC[C@@H]3c4ccc(O)cc4C[C@@H](CCCCCCCCC[S+]([O-])CCCC(F)(F)C(F)(F)F)[C@H]3[C@@H]1CC[C@@H]2O` (stereo partly shown) [fulvestrant], the results for the IC50 with MCF-7 cells [1] and in the series on MCF-7 cells [2] were 0.86 nM and 0.149 nM, respectively.
For the molecule `Oc1ccc2c(c1)CC[C@H](c1ccccc1)[C@@H]2c1ccc(OCCN2CCCC2)cc1` [lasofoxofene, Lasofoxifene], the IC50 in the series on MCF-7 cells [1] (0.1 nM estradiol (E2), 7 day) was 0.17 nM.
Consider `O=C(c1ccc(OCCN2CCCCC2)cc1)c1c(-c2ccc(O)cc2)sc2cc(O)ccc12` [raloxifene], for which the IC50 in the series on MCF-7 cells [1] worked out at 0.77 nM.
